# “And” between values parts separate entries of the source, which are not always exact repeats. Equal entries are not always repeated. Structures can show the parent of a compound that is named as a salt. Where two headings read alike, the source gives them in different places.
# Assays:
# cdk4/cyclin D1 = target: T1, cdk4/cyclin D1 (Homo sapiens, UniProt P11802); assay: Cyclin-dependent Kinase 4 Assay (cdk4/cyclin D1, GST-Rb substrate); type: biochemical; conditions: cdk4/cyclin D1 insect cell lysate, 10 μM ATP, 30 min at 37° C., several values = separate determinations, read-out: CDK4 Inhibition IC50
# T1 construct: made in house; host or cells: Sf9 insect cells (Bac-to-Bac baculovirus, pFastBac)
# T1 sequence (P11802 whole entry): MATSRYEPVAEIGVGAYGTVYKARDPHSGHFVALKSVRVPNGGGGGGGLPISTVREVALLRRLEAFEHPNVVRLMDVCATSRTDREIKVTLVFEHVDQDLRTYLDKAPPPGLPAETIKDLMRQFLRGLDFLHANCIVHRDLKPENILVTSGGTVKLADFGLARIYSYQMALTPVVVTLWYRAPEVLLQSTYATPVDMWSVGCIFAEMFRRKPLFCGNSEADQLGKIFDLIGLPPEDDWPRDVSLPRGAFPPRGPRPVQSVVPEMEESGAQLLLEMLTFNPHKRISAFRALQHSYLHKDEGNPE
# T1 sequence (P24385 whole entry partner): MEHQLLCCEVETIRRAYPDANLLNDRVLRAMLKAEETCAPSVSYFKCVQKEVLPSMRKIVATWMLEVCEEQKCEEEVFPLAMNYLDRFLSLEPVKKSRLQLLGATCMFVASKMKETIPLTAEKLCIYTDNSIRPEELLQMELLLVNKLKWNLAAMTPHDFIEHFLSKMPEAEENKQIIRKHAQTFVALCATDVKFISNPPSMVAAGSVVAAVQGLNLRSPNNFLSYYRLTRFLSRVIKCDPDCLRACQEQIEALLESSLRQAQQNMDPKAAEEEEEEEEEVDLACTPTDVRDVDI
# Summary of the method: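 Insect-cell lysate of coexpressed cdk4/cyclin D1 (0.1 μg) acts on GST-Rb (0.5 μg) bound to glutathione-Sepharose, in 50 mM HEPES pH 7.5, 10 mM MgCl2, 1 mM EGTA. Reaction runs 30 min at 37 °C, then is stopped by filtration and TNEN washes. Rb phosphorylation read by scintillation counting; IC50 derived.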
# cdk2/cyclin E = target: T2, cdk2/cyclin E (Homo sapiens, UniProt P24941); assay: Cyclin-Dependent Kinase 2 Assay (cdk2/cyclin E, GST-Rb substrate); type: biochemical; conditions: recombinant cdk2/cyclin E, 10 μM ATP, 30 min at 30° C., several values in a cell = separate determinations, read-out: CDK-2 Inhibition IC50
# T2 construct: made in house; host or cells: insect cells (baculovirus co-infection)
# Protocol: Substrate: GST-Rb as described above for cdk4/cyclin D1
# Assay conditions for cdk2/cyclin E were identical to those for cdk4/cyclin D1 including the substrate. The concentration of recombinant cdk2/cyclin E in the assay was 0.1 μg per 100 μl assay. Incubation was for 30 min at 30° C.
# MCF-7 = assay: In vitro tumor cell proliferation, MCF-7; type: cell-based, human; conditions: sulforhodamine B or CyQUANT assay, read-out: In vitro Tumor Cell Proliferation (IC50, μM) Breast MCF-7
# Protocol: (§1) The proliferation of tumor cells was measured using a sulforhodamine B assay as described in Skehan, P., et al., J. Natl. Cancer Inst. […] Tumor cells were harvested with trypsin-EDTA, cells that excluded trypan blue were counted, added to 96-well plates and incubated overnight at 37° C. Drug was added to the wells following dilution in culture medium. Three days later, the medium was removed and replenished with medium containing fresh drug and incubated an additional 4 days. The cells were then fixed with 0.1 ml 10% trichloroacetic acid for 60 min at 4° C. The plates were rinsed five times with tap water, air-dried and stained for 30 min with 0.4% sulforhodamine B in 1% acetic acid and air-dried.
# (§2) Alternatively, the CyQUANT cell proliferation assay was used to quantitate cell proliferation.
# (§3) Alternatively, the CyQUANT cell proliferation assay was used to quantify tumor cell proliferation. Tumor cells were harvested with trypsin-EDTA, cells that excluded trypan blue were counted, added to 96-well plates and incubated overnight at 37° C. Drug was added to the wells following dilution in culture medium. Three days later the medium was removed and the plates frozen at −80° C. for at least 30 minutes.
# MCF7 is a human breast adenocarcinoma, hormone-dependent (HTB 22);
# HCT-15 = assay: In vitro tumor cell proliferation, HCT-15; type: cell-based, human; conditions: read-out: In vitro Tumor Cell Proliferation (IC50, μM) Colon HCT-15
# Protocol: as §1, §2, §3
# HT-29 = assay: In vitro tumor cell proliferation, HT-29; type: cell-based, human; conditions: many values given with an undefined *, read-out: In vitro Tumor Cell Proliferation (IC50, μM) Colon HT-29
# Summary of the method: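 HT-29 cells seeded overnight at 37° C, then exposed to drug for 3 days, refed with fresh drug-containing medium for 4 more days. Proliferation read by sulforhodamine B staining after TCA fixation; alternatively by CyQUANT after freezing plates at −80° C following 3 days' drug exposure.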
# DU145 = assay: In vitro tumor cell proliferation, DU145; type: cell-based, human; conditions: many values given with an undefined *, read-out: In vitro Tumor Cell Proliferation (IC50, μM) Prostate DU145
# Summary of the method: (§4)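 Tumor cells were seeded overnight at 37° C, then exposed to drug diluted in culture medium for 3 days, refed with fresh drug-containing medium and kept 4 more days. Cells were fixed with 10% trichloroacetic acid and stained with 0.4% sulforhodamine B; alternatively, CyQUANT read proliferation after 3 days' drug exposure.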
# PC-3 = assay: In vitro tumor cell proliferation, PC-3; type: cell-based, human; conditions: many values given with an undefined *, read-out: In vitro Tumor Cell Proliferation (IC50, μM) Prostate PC-3
# Summary of the method: as §4
# MDA-MB-231 = assay: In vitro tumor cell proliferation, MDA-MB-231; type: cell-based, human; conditions: sulforhodamine B or CyQUANT assay, many values given with an undefined *, read-out: In vitro Tumor Cell Proliferation (IC50, μM) Breast MDA-MB-231
# Summary of the method: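 Cells plated overnight at 37 °C, then exposed to drug for 3 days, refed with fresh drug and incubated 4 more days. Read-out by sulforhodamine B staining after TCA fixation; alternatively, CyQUANT after 3-day drug exposure and freezing at −80 °C.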
# A549 = assay: In vitro tumor cell proliferation, A549; type: cell-based, human; conditions: many values given with an undefined *, read-out: In vitro Tumor Cell Proliferation (IC50, μM) Lung A549
# Summary of the method: as §4
# DMS-114 = assay: In vitro tumor cell proliferation, DMS-114; type: cell-based, human; conditions: many values given with an undefined *, read-out: In vitro Tumor Cell Proliferation (IC50, μM) Lung DMS-114
# Summary of the method: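 Human small cell lung carcinoma DMS-114 cells plated overnight, then drug-treated for 3 days, medium and drug renewed, and incubated 4 more days. Growth read by sulforhodamine B staining after TCA fixation; alternatively by CyQUANT after 3 days' drug exposure and freezing at −80 °C.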
# [1] = Homo sapiens, MDA-MB-231, MDA-MB-231
IC50 (cdk4/cyclin D1),IC50 (cdk2/cyclin E),"IC50 (MCF-7; Homo sapiens, MCF7, MCF-7) [µM]","IC50 (HCT-15; Homo sapiens, HCT-15, HCT-15) [µM]","IC50 (HT-29; Homo sapiens, HT-29, HT-29) [µM]","IC50 (DU145; DU145, dihydrochloride) [µM]","IC50 (DU145; Homo sapiens, DU-145, DU145) [µM]","IC50 (PC-3; Homo sapiens, PC-3, PC-3) [µM]","IC50 (PC-3; PC-3, dihydrochloride) [µM]",IC50 (MDA-MB-231; [1]) [µM],"IC50 (MDA-MB-231; MDA-MB-231, dihydrochloride) [µM]","IC50 (A549; A549, dihydrochloride) [µM]","IC50 (A549; Homo sapiens, A549, A549) [µM]","IC50 (HT-29; HT-29, dihydrochloride) [µM]","IC50 (DMS-114; Homo sapiens, DMS-114, DMS-114) [µM]","IC50 (MCF-7; MCF-7, dihydrochloride) [µM]","IC50 (DMS-114; DMS-114, dihydrochloride) [µM]","IC50 (HCT-15; HCT-15, dihydrochloride) [µM]",also measured,SMILES
9400 nM and 7700 nM,490 nM and 140 nM,2.9,5.7,2.1,,,,,,,,,,,,,,"IC50 (MCF-7; MCF-7, hydrochloride): 1.9 µM; IC50 (HCT-15; HCT-15, hydrochloride): 4 µM; IC50 (HT-29; HT-29, hydrochloride): 1.9 µM","N[C@H]1CC[C@H](Nc2nc(NCc3cccc(I)c3)c3ncn(C4C=CCC4)c3n2)CC1 (relative stereo) [Example 35, 2-[Trans-(4-aminocyclohexyl)amino]-6-[(3-iodobenzyl)amino]-9-(2-cyclopentenyl)purine hydrochloride]"
4500 nM and 6200 nM,230 nM,,16,7.3,6.7,3.5,4.4,3.5,8.6,11,3.5,5.6,8.5,5.4,,,,,"COc1ccccc1CNc1nc(N[C@H]2CC[C@H](N)CC2)nc2c1ncn2C1CCCC1 [Example 12, 2-[Trans-(4-aminocyclohexyl)amino]-6-[(2-methoxybenzyl)amino]-9-cyclopentylpurine dihydrochloride]"
2200 nM and 2600 nM,480 nM,5.6,> 20,12,9.1,6.4,4.8,6.4,12,,,1.9,,6.1,11,7.7,,,"COc1cc(CNc2nc(N[C@H]3CC[C@H](N)CC3)nc3c2ncn3C2CCCC2)cc(OC)c1 [Example 28, 2-[Trans-(4-aminocyclohexyl)amino]-6-[(3 5-dimethoxybenzyl)amino]-9-cyclopentylpurine dihydrochloride]"
6400 nM and 6900 nM,260 nM,,4,2.6,1.7,0.95,1.1,1.7,4.5,4.3,,1.9,3,0.85,,0.95,3.7,,"N[C@H]1CC[C@H](Nc2nc(NCc3ccccc3C(F)(F)F)c3ncn(C4CCCC4)c3n2)CC1 [Example 25, 2-[Trans-(4-aminocyclohexyl)amino]-6-[(2-trifluorobenzyl)amino]-9-cyclopentylpurine dihydrochloride]"
2000 nM and 2700 nM and 1700 nM,120 nM and 81 nM,1.2,2.4,1.5,1.5,1.4,0.96,1,1.4,1.5,0.9,0.97,1.6,1.1,1.6,0.86,2.5,,"N[C@H]1CC[C@H](Nc2nc(NCc3ccc(C(F)(F)F)cc3)c3ncn(C4CCCC4)c3n2)CC1 [Example 1, 2-[Trans-(4-aminocyclohexyl)amino]-6-[(4-trifluorobenzyl)amino]-9-cyclopentylpurine dihydrochloride]"
6600 nM and 3200 nM,30 nM (2×) and 48 nM and 22 nM,,4.5,1.3,1.2,0.88,0.98,0.63,0.88,1.2,1.1,0.8,1.4,0.8,,0.89,3.5,,"COc1ccc(CNc2nc(N[C@H]3CC[C@H](N)CC3)nc3c2ncn3C2CCCC2)cc1 [Example 8, 2-[Trans-(4-aminocyclohexyl)amino]-6-[(4-methoxybenzyl)amino]-9-cyclopentylpurine dihydrochloride]"
1200 nM and 800 nM,80 nM,2.3,7.7,3.4,4.3,2.7,1,2,3.4,5.8,4.8,3.4,6,4.2,3.5,4.5,,,"COc1ccc(CNc2nc(N[C@H]3CC[C@H](N)CC3)nc3c2ncn3C2CCCC2)cc1OC [Example 34, 2-[Trans-(4-aminocyclohexyl)amino]-6-[3,4-dimethoxybenzyl)amino]-9-cyclopentylpurine dihydrochloride]"
,350 nM,,9.9,6.8,6.9,3.6,4,,6.1,7.9,7.5,6.8,,5.3,,5.8,,,"COc1ccc(CNc2nc(N[C@H]3CC[C@H](N)CC3)nc3c2ncn3C2CCCC2)c(OC)c1 [Example 17, 2-[Trans-(4-aminocyclohexyl)amino]-6-[(2,4-dimethoxybenzyl)amino]-9-cyclopentylpurine dihydrochloride]"
2900 nM,50 nM,2,,3.1,1.7,0.99,1.9,1.3,2.2,2.6,,1.7,3.4,1,,1.4,,,"COc1cccc(CNc2nc(N[C@H]3CC[C@H](N)CC3)nc3c2ncn3C2CCCC2)c1OC [Example 13, 2-[Trans-(4-aminocyclohexyl)amino]-6-[(2,3-dimethoxybenzyl)amino]-9-cyclopentylpurine dihydrochloride]"
